In patent US20090012125A1, “Piperidine Derivatives, Their Process for Preparation, Their Use as Therapeutic Agents and Pharmaceutical Compositions Containing Them” (priority 2006, published 2009):

Legend:
[1] = target: T1, human recombinant CCR3 receptors (Homo sapiens, UniProt P51677); experiment: Compound affinity at human recombinant CCR3 receptors by radioligand competition, CHO-K1 cell membranes; format: binding; conditions: mean of minimum 2 experiments; Cheng-Prussof correction of pIC50; 2 nM [3H] radioligand, 2 h at 37° C.; read-out: CCR3 pKi (converted)
T1 construct: expressed in transfected cells
T1 sequence (P51677 1-355): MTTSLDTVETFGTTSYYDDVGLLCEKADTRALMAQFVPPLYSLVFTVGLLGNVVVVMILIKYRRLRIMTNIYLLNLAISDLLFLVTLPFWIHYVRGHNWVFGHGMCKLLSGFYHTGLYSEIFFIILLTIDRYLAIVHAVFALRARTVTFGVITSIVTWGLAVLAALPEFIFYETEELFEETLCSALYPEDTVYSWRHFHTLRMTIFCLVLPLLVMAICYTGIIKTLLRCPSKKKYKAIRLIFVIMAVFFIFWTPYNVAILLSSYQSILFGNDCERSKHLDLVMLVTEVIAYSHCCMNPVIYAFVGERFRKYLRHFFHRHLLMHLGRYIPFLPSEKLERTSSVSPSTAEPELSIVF
Description: Determination of Compound Affinity at Human Recombinant CCR3 Receptors Assessed by Competition Of [^3H]-4-(2,4-dichloro-3-methylphenoxy)-1′-[4-(methylsulfonyl)benzoyl]-1,4′-bipiperidine for CHO-K1 Cell Membranes In Vitro
Membranes, prepared from CHO-K1 cells stably expressing recombinant human CCR3, suspended in assay buffer (50 mM Tris-Base, pH 7.4; containing sodium chloride (100 mM) and magnesium chloride (2 mM)) were incubated in the presence of 2 nM [^3H]-4-(2,4-dichloro-3-methylphenoxy)-1′-[4-(methylsulfonyl)benzoyl]-1,4′-bipiperidine, along with vehicle (1% (v/v) DMSO), 4-(4-chloro-3-methylphenoxy)-1′-[2-(methylsulfonyl)benzoyl]-1,4′-bipiperidine (to define non-specific binding) or test compound for 2 h at 37° C. in round bottomed 96-well plates. The plates were then filtered onto GF/B filter plates, pre-soaked for 1 hour in plate-coating solution (0.3% (w/v) polyethylenimine, 0.2% (w/v) BSA in de-ionised water), using a 96-well plate Tomtec cell harvester. Four washes (250 μL) with wash buffer (50 mM Tris-Base, pH 7.4 containing sodium chloride (500 mM) and magnesium chloride (2 mM)) were performed at 4° C. to remove unbound radioactivity. Plates were dried and MicroScint-O (50 μL) was added to each well. The plates were sealed (TopSeal A) and filter-bound radioactivity was measured with a scintillation counter (TopCount, Packard BioScience) using a 1 minute counting protocol.
Specific binding was determined from values of the control wells minus the values for the NSB wells for each assay plate. pIC50 values were calculated using a four parameter logistic fit (where pIC50 is defined as the negative logarithm of the concentration of compound required for 50% reduction in specific [^3H]-4-(2,4-dichloro-3-methylphenoxy)-1′-[4-(methylsulfonyl)benzoyl]-1,4′-bipiperidine binding). Data were presented as mean pKi values (calculated by applying a Cheng-Prussof correction to pIC50 values) from a minimum of 2 separate experiments.

[2] = Intrinsic clearance with human liver microsomes; format: in vitro ADME; conditions: human liver microsomes 1 mg protein/ml, NADPH, pH 7.4
Description: Determination of Intrinsic Clearance with Human Liver Microsomes
Frozen human liver microsomes (BD Gentest, Oxford) were defrosted and were then diluted with 0.1 M pH 7.4 phosphate buffer at 4° C. to 1 mg protein/ml. 0.45 mL aliquots of the microsome suspension were dispensed into flat-bottomed vials (1 per compound) and were allowed to come to room temperature (5 min). During the warming time, 5 μL of solution of each test compound (typically 100 μM in DMSO) was dispensed into separate vials resulting in a final DMSO concentration of 1%. 50 μL of a 10 mM solution of NADPH in phosphate buffer (0.1 M pH 7.4, 37° C.) was added to each vial to initiate metabolism.
50 μL Aliquots of the mixtures were removed at measured intervals and were immediately quenched by addition to 100 μL of methanol cooled in ice. The quenched samples were kept cold (at −20° C. or less) for at least 1 h and were then centrifuged to remove protein
The supernatant solution was analysed using quantitative LCMS for the presence of test compound. From the concentrations of test compound at different time points a T1/2 may be calculated which may be converted to an intrinsic clearance using the equation: CLint=ln 2/T1/2.

**Q.** What does the source list for `O=C(CCc1ccc2cc(C(=O)O)ccc2c1)NC1CCN(Cc2ccc(Cl)c(Cl)c2)CC1` [Example 6, 6-{2-[1-(3,4-Dichloro-benzyl)-piperidin-4-ylcarbamoyl]-ethyl}-naphthalene-2-carboxylic acid]?
**A.** Ki [1]: 15.8 nM; CLint scaled at 1 µM [2]: < 3 mL/min/kg

**Q.** With `O=C(CCc1cccc(C(=O)O)c1)NC1CCN(Cc2ccc(Cl)c(Cl)c2)CC1` [Example 4, 3-{2-[1-(3,4-Dichloro-benzyl)-piperidin-4-ylcarbamoyl]-ethyl}-benzoic acid] as the molecule, how does the Ki [1] read?
**A.** The Ki was 79.4 nM.

**Q.** What about the CLint scaled at 1 µM [2] of the same molecule?
**A.** Its CLint scaled at 1 µM is less than 3 mL/min/kg.

**Q.** For `O=C(CCc1ccc(C(=O)O)cc1)NC1CCN(Cc2ccc(Cl)c(Cl)c2)CC1` [Example 2, 4-{2-[1-(3,4-Dichloro-benzyl)-piperidin-4-ylcarbamoyl]-ethyl}-benzoic acid], which Ki [1] is on record?
**A.** The Ki was 63.1 nM.

**Q.** What about the CLint scaled at 1 µM [2] of the same molecule?
**A.** The CLint scaled at 1 µM was less than 3 mL/min/kg.
